A value given as a limit tells only on which side of the number the result lay.

Holding throughout (assay type): cell-based
One test deals with A549 cells. Nature of the test: Cell viability (CellTiter-Glo ATP content) in A549 cells. The note with it: Homo sapiens, A549, 72 h, 72 hours treatment, cell survival by CellTiter-Glo, 2% fetal bovine serum. On the procedure: (§1) Logarithmically growing A549, LOX and MelJuSo cells (ATCC) were plated in antibiotic-free RPMI medium (Coming) supplemented with 2% fetal bovine serum (Gemini Bio-products) at a density of 5,000 cells per well in clear-bottom 96-well plates. The next day cells were treated (triplicates) with increasing doses of a compound of the present disclosure (dissolved in DMSO) and DMSO vehicle controls (final DMSO concentration of 0.5%) for 72 hours and subsequently assessed for cell viability by measuring ATP content with CellTiter-Glo Luminescent Cell Viability Assay (Promega). Signal intensity was measured on a Glomax™ 96 Microplate Luminometer (Promega) and percent cell survival was calculated based on the reading of vehicle control cells set as 100%.
Background: Cellular ATP, detected with luciferase, serves as a proxy for viable cell number.

The test system of another test is LOX cells. Nature of the test: Cell viability (CellTiter-Glo ATP content) in LOX cells. To be noted: LOX, 72 h, 72 hours treatment, cell survival by CellTiter-Glo, 2% fetal bovine serum. Here is the method: as §1
The subject of the next test is MelJuSo cells. Nature of the test: Cell viability (CellTiter-Glo ATP content) in MelJuSo cells. The note with it: Homo sapiens, MEL-JUSO, 72 hours treatment, cell survival by CellTiter-Glo, 2% fetal bovine serum. Here is the method: as §1

The IC50 is the concentration that inhibits the measured activity by half. As for `CCCCC1C(c2ccc(F)cc2)=NN(c2cccc(C)c2)C1(C)C(=O)NCCCC(C)(C)CO` (centres unmarked) [Compound 61, 4-butyl-3-(4-fluorophenyl)-N-(5-hydroxy-4,4-dimethylpentyl)-5-methyl-1-m-tolyl-4,5-dihydro-1H-pyrazole-5-carboxamide], the concentration for half-maximal inhibition (IC50) in the test on A549 cells is over 2 µM; in the test on LOX cells it was 1 to 2 µM; in the test on MelJuSo cells, 0.5 to 1 µM.
The like results for `CCCCC1C(c2ccc(F)cc2)=NN(c2ccccc2)C1(C)C(=O)NCCc1ccc(O)cc1` (centres unmarked) [Compound 38, 4-butyl-3-(4-fluorophenyl)-N-(4-hydroxyphenethyl)-5-methyl-1-phenyl-4,5-dihydro-1H-pyrazole-5-carboxamide] were, in that order, over 2 µM, over 2 µM and 0.5 to 1 µM.
On to `CCCCC1C(c2ccc(F)cc2)=NN(c2ccccc2)C1(C)C(=O)NCc1ccc(O)cc1` (centres unmarked) [Compound 36, 4-butyl-3-(4-fluorophenyl)-N-(4-hydroxybenzyl)-5-methyl-1-phenyl-4,5-dihydro-1H-pyrazole-5-carboxamide], for which the IC50 with A549 cells was over 2 µM; in the test on LOX cells, over 2 µM; in the test on MelJuSo cells, 1 to 2 µM.
Take `CCCCC1(C)C(c2ccc(F)cc2)=NN(c2ccc(F)cc2F)C1(C)C(=O)NCCCC(C)(C)CO` (centres unmarked) [Compound 87, 4-butyl-1-(2,4-difluorophenyl)-3-(4-fluorophenyl)-N-(5-hydroxy-4,4-dimethylpentyl)-4,5-dimethyl-4,5-dihydro-1H-pyrazole-5-carboxamide]: the IC50 in the test on A549 cells, in the test with LOX cells and in the test with MelJuSo cells was over 2 µM each time.
Consider `COC(=O)CNC(=O)C1(C)C(c2ccsc2)C(c2ccc(F)cc2F)=NN1c1ccc(F)cc1F` (centres unmarked) [Compound 119, methyl 2-(1,3-bis(2,4-difluorophenyl)-5-methyl-4-(thiophen-3-yl)-4,5-dihydro-1H-pyrazole-5-carboxamido)acetate], for which the IC50 is 0.5 to 1 µM with A549 cells, 0.25 to 0.5 µM in the test with LOX cells and under 0.25 µM in the test on MelJuSo cells.
For the compound `COCCNC(=O)C1(C)C(c2ccsc2)C(c2ccc(F)cc2)=NN1c1ccc(F)cc1F` (centres unmarked) [Compound 86, 1-(2,4-difluorophenyl)-3-(4-fluorophenyl)-N-(2-methoxyethyl)-5-methyl-4-(thiophen-3-yl)-4,5-dihydro-1H-pyrazole-5-carboxamide], the IC50 with A549 cells, in the test with LOX cells and in the test with MelJuSo cells was under 0.25 µM throughout.
For the compound `CCCCC1C(c2ccc(F)cc2)=NN(c2ccc(F)cc2F)C1(C)C(=O)NCCCN(C)C` (centres unmarked) [Compound 24, 4-butyl-1-(2,4-difluorophenyl)-N-(3-(dimethylamino)propyl)-3-(4-fluorophenyl)-5-methyl-4,5-dihydro-1H-pyrazole-5-carboxamide], the IC50 with A549 cells, in the test with LOX cells and in the test on MelJuSo cells was over 2 µM throughout.
For `CCCCC1C(c2ccc(F)cc2)=NN(c2ccccc2)C1(C)C(=O)NCCCCC(C)(C)O` (centres unmarked) [Compound 2, 4-butyl-3-(4-fluorophenyl)-N-(5-hydroxy-5-methylhexyl)-5-methyl-1-phenyl-4,5-dihydro-1H-pyrazole-5-carboxamide], the IC50 in the test with A549 cells was 1 to 2 µM; in the test with LOX cells, 1 to 2 µM; with MelJuSo cells, 0.5 to 1 µM.
Regarding `COCCNC(=O)C1(C)C(c2cccn2C)C(c2ccc(F)cc2)=NN1c1ccc(F)cc1F` (centres unmarked) [Compound 94, 1-(2,4-difluorophenyl)-3-(4-fluorophenyl)-N-(2-methoxyethyl)-5-methyl-4-(1-methyl-1H-pyrrol-2-yl)-4,5-dihydro-1H-pyrazole-5-carboxamide], the IC50 in the test with A549 cells and with MelJuSo cells was over 2 µM in each case.
Regarding `CCCCC1C(c2ccc(F)cc2)=NN(c2ccccc2)C1(C)C(=O)NCc1cccc(Cl)c1` (centres unmarked) [Compound 39, 4-butyl-N-(3-chlorobenzyl)-3-(4-fluorophenyl)-5-methyl-1-phenyl-4,5-dihydro-1H-pyrazole-5-carboxamide], the IC50 in the test with A549 cells, in the test with LOX cells and in the test on MelJuSo cells was over 2 µM in each case.
Consider `CC(C)(CO)CCCNC(=O)C1(C)C(c2cccs2)C(c2ccc(F)cc2)=NN1c1ccccc1` (centres unmarked) [Compound 20, 3-(4-fluorophenyl)-N-(5-hydroxy-4,4-dimethylpentyl)-5-methyl-1-phenyl-4-(thiophen-2-yl)-4,5-dihydro-1H-pyrazole-5-carboxamide], for which the figures for the IC50 in the test on A549 cells, with LOX cells and with MelJuSo cells were 0.5 to 1 µM, 0.5 to 1 µM and 0.25 to 0.5 µM, respectively.
For the compound `COCCNC(=O)C1(C)C(c2ccco2)C(c2ccc(F)cc2F)=NN1c1ccc(F)cc1F` (centres unmarked) [Compound 116, 1,3-bis(2,4-difluorophenyl)-4-(furan-2-yl)-N-(2-methoxyethyl)-5-methyl-4,5-dihydro-1H-pyrazole-5-carboxamide], the IC50 in the test with A549 cells is 0.25 to 0.5 µM; in the test on LOX cells it was under 0.25 µM; with MelJuSo cells it was under 0.25 µM.
Take `CC1(C(=O)NCCCN2CCOCC2)C(c2cccs2)C(c2ccc(F)cc2)=NN1c1ccc(F)cc1F` (centres unmarked) [Compound 122, 1-(2,4-difluorophenyl)-3-(4-fluorophenyl)-5-methyl-N-(3-morpholinopropyl)-4-(thiophen-2-yl)-4,5-dihydro-1H-pyrazole-5-carboxamide]: the IC50 with A549 cells, with LOX cells and in the test with MelJuSo cells was over 2 µM throughout.
With `CCCCC1C(c2ccc(F)cc2)=NN(c2ccccc2)C1(C)C(=O)NC(C)c1ccc(S(C)(=O)=O)cc1` (centres unmarked) [Compound 69, 4-butyl-3-(4-fluorophenyl)-5-methyl-N-(1-(4-(methylsulfonyl)phenyl)ethyl)-1-phenyl-4,5-dihydro-1H-pyrazole-5-carboxamide], the IC50 with A549 cells, in the test on LOX cells and in the test on MelJuSo cells was over 2 µM in each case.
Regarding `COC(=O)[C@H](C)NC(=O)C1(C)C(c2ccoc2)C(c2ccc(F)cc2F)=NN1c1ccc(F)cc1F` (stereo partly drawn) [Compound 132, (2S)-methyl 2-(1,3-bis(2,4-difluorophenyl)-4-(furan-3-yl)-5-methyl-4,5-dihydro-1H-pyrazole-5-carboxamido)propanoate], the IC50 with A549 cells, in the test with LOX cells and in the test on MelJuSo cells was over 2 µM throughout.
For the compound `CCCCC1C(c2ccc(F)cc2)=NN(c2ccccc2)C1(C)C(=O)NCCCN1CCCCC1` (centres unmarked) [Compound 71, 4-butyl-3-(4-fluorophenyl)-5-methyl-1-phenyl-N-(3-(piperidin-1-yl)propyl)-4,5-dihydro-1H-pyrazole-5-carboxamide], the IC50 in the test with A549 cells, in the test on LOX cells and in the test with MelJuSo cells was over 2 µM each time.
As for `CC1(C(=O)NCC(=O)NCCO)C(c2cccs2)C(c2ccc(F)cc2)=NN1c1ccc(F)cc1F` (centres unmarked) [Compound 112, 1-(2,4-difluorophenyl)-3-(4-fluorophenyl)-N-(2-(2-hydroxyethylamino)-2-oxoethyl)-5-methyl-4-(thiophen-2-yl)-4,5-dihydro-1H-pyrazole-5-carboxamide], the IC50 in the test on A549 cells, in the test with LOX cells and in the test with MelJuSo cells was over 2 µM throughout.
For the compound `CC(C)(O)CNC(=O)CNC(=O)C1(C)C(c2cccs2)C(c2ccc(F)cc2)=NN1c1ccc(F)cc1F` (centres unmarked) [Compound 104, 1-(2,4-difluorophenyl)-3-(4-fluorophenyl)-N-(2-(2-hydroxy-2-methylpropylamino)-2-oxoethyl)-5-methyl-4-(thiophen-2-yl)-4,5-dihydro-1H-pyrazole-5-carboxamide], the figures for the IC50 in the test on A549 cells, with LOX cells and in the test on MelJuSo cells were over 2 µM, 1 to 2 µM and 0.5 to 1 µM, respectively.
Turning to `CCCCC1C(c2ccc(F)cc2)=NN(c2ccccc2)C1(C)C(=O)NCC(C)(C)N(C)C` (centres unmarked) [Compound 74, 4-butyl-N-(2-(dimethylamino)-2-methylpropyl)-3-(4-fluorophenyl)-5-methyl-1-phenyl-4,5-dihydro-1H-pyrazole-5-carboxamide], the IC50 in the test on A549 cells, with LOX cells and in the test on MelJuSo cells was over 2 µM each time.
Turning to `CCCCC1C(c2ccc(F)cc2)=NN(c2ccccc2)C1(C)C(=O)NCc1ccc(N(C)C)cc1` (centres unmarked) [Compound 48, 4-butyl-N-(4-(dimethylamino)benzyl)-3-(4-fluorophenyl)-5-methyl-1-phenyl-4,5-dihydro-1H-pyrazole-5-carboxamide], the half-maximal inhibitory concentration (IC50) in the test on A549 cells, in the test on LOX cells and in the test on MelJuSo cells was over 2 µM throughout.
With `COCCNC(=O)C1(C)C(c2cnn(C)c2)C(c2ccc(F)cc2)=NN1c1ccc(F)cc1F` (centres unmarked) [Compound 96, 1-(2,4-difluorophenyl)-3-(4-fluorophenyl)-N-(2-methoxyethyl)-5-methyl-4-(1-methyl-1H-pyrazol-4-yl)-4,5-dihydro-1H-pyrazole-5-carboxamide], the IC50 in the test on A549 cells and in the test with MelJuSo cells was over 2 µM each time.
In the case of `Cn1cc(C2C(c3ccc(F)cc3)=NN(c3ccc(F)cc3F)C2(C)C(=O)NCCCC(C)(C)CO)cn1` (centres unmarked) [Compound 95, 1-(2,4-difluorophenyl)-3-(4-fluorophenyl)-N-(5-hydroxy-4,4-dimethylpentyl)-5-methyl-4-(1-methyl-1H-pyrazol-4-yl)-4,5-dihydro-1H-pyrazole-5-carboxamide], the IC50 with A549 cells and in the test on MelJuSo cells was over 2 µM throughout.
`Cn1cccc1C1C(c2ccc(F)cc2)=NN(c2ccc(F)cc2F)C1(C)C(=O)NCCCC(C)(C)CO` (centres unmarked) [Compound 93, 1-(2,4-difluorophenyl)-3-(4-fluorophenyl)-N-(5-hydroxy-4,4-dimethylpentyl)-5-methyl-4-(1-methyl-1H-pyrrol-2-yl)-4,5-dihydro-1H-pyrazole-5-carboxamide]: the IC50 with A549 cells and with MelJuSo cells was over 2 µM in each case.

Values taken from patent US12227482B2, “Compounds and compositions for the treatment of cancer” (The Regents of the University of California, priority 2016, dated 2025).
